Values of other authors, collected in patent US20230330185A1, “METHODS AND COMPOSITIONS FOR TRANSDUCING HEMATOPOIETIC STEM AND PROGENITOR CELLS IN VIVO” (Magenta Therapeutics, Inc., priority 2020, published 2023).

Test system: hematopoietic stem and progenitor cells
Details: as described in U.S. Pat. No. 6,080,398 and 6,447,766; cited from earlier work

Gro-β T N65D: variant of Gro-β T with aspartic acid in place of asparagine at position 65, SEQ ID NO: 4
potency to induce hematopoietic stem and progenitor cell mobilization, relative to parent peptide: substantially greater than that of Gro-β T

Gro-β T: truncated Gro-β with deletion of the first four N-terminal amino acids, SEQ ID NO: 2; CXCR2 agonist
potency to induce hematopoietic stem and progenitor cell mobilization, relative to parent peptide: superior to that of Gro-β by multiple orders of magnitude
